In paper PMC10560666, “Four new triterpene saponins from Cephalaria speciosa and their potent cytotoxic and immunomodulatory activities” (Scientific Reports, 2023):
Marks after values point to notes of the source that are not given here.

How the values were obtained:
[1] = test system: PC-3 human prostate adenocarcinoma cells; assay: MTT cytotoxicity on PC-3; format: cell-based; conditions: Homo sapiens, 48 h, mean ± standard deviation, n = 3, – = Not detected
Description: (§1) The human leukemia monocyte cell line (THP-1), human lung adenocarcinoma cell line (A549), human breast cancer cells (MDA-MB231), human prostate adenocarcinoma cells (PC3), human malignant glioma cell line (U87MG), human cervical gland carcinoma cells (HeLa), human hepatocellular carcinoma cells (HEP-G2) and normal human lung fibroblast cells (CCD-34-LU) as a healthy cell line in our stock used in this study were purchased from American Type Culture Collection (ATCC). THP-1 cells were cultured in Roswell Park Memorial Institute (RPMI 1640) medium and MDA-MB231, PC3, U87 MG, HeLa, HEP-G2, and CCD-34-LU cells cultivated in Dulbecco’s Modified Eagle’s Medium/Nutrient Mixture F-12 (DMEM/F12) (Gibco, USA) medium supplemented with 10% FBS (Gibco, USA), 100U/mL of penicillin 100 µg/mL of streptomycin (Gibco, USA), and 2 mM L-glutamine (Gibco, USA).
(§2) Cytotoxicity of saponins (1–4) and their prosapogenins (2a–4a) were tested against A549, MDA-MB-231, PC-3, U87MG, HeLa, HepG-2 cancer cells and CCD34-Lu healthy cell line using MTT [3-(4,5-dimethylthiazole-2-yl)-2,5-diphenyltetrazolium bromide)] assay (Acros Organics, New Jersey, USA)[11], [23]. For this purpose, 1 × 10^5 cells/mL of all the cell lines were seeded in 96-well plates (Corning, USA) and cultivated in the at 37 °C overnight. After the incubation, the cells were incubated with different concentrations of saponins (50, 5, and 0.5 µg/mL), and doxorubicin (Sigma, USA) (20, 2, and 0.2 µg/mL) for 48 h at 37 °C. Then, the MTT was added as 20 μL (from the stock concentration of 2.5 mg/mL) to all wells and further incubated for 4 h at 37 °C. Following the incubation, the medium was removed and 150 µL DMSO was added to dissolve the formed formazan crystals. After the formazan crystals were completely dissolved, the optical density (OD) was measured at 570 nm with an UV/Vis microplate spectrophotometer (Thermo Fisher Scientific, USA). All data are the results of at least three independent experiments carried out in triplicate. Data are presented as mean ± standard error of the mean (SEM) of samples. The IC50 value was calculated using the GraphPad Prism 8 (USA) program based on the calculated percent viability values and absorbance values. The percentage of viability was determined by Eq. (1):1 %Viablecells=absorbanceoftreatedcells-absorbanceofblank/absorbanceofcontrol-absorbanceofblank×100

[2] = test system: HepG-2 human hepatocellular carcinoma cells; assay: MTT cytotoxicity on HepG-2; format: cell-based; conditions: Homo sapiens, HepG2, 48 h, mean ± standard deviation, n = 3, – = Not detected
Description: as §1, §2

[3] = test system: U87MG human malignant glioma cell line; assay: MTT cytotoxicity on U87MG; format: cell-based; conditions: Homo sapiens, U-87 MG, 48 h, mean ± standard deviation, n = 3, – = Not detected
Description: as §1, §2

[4] = test system: A549 human lung adenocarcinoma cell line; assay: MTT cytotoxicity on A549; format: cell-based; conditions: Homo sapiens, A549, 48 h, mean ± standard deviation, n = 3, – = Not detected
Description: as §1, §2

[5] = test system: THP-1 derived macrophage cells; assay: Macrophage polarization by flow cytometry (CD11b, CD80, CD163 MFI); format: cell-based, human; conditions: saponin 3 µg/mL, 24 h, PMA-differentiated THP-1, mean ± SD, n = 3
Description: To differentiate THP-1 cells into M0-THP-1, cells were seeded at an initial concentration of 1 × 10^6 cells/mL in 6-well plates (Corning, USA) and treated with 15 ng/mL phorbol 12-myristate 13—acetate (PMA, Sigma USA). Then incubate at 5% CO2, 37 °C for 48 h[24]. To evaluate the potential of saponins with/without infectious bronchitis virus (IBV) D274 antigen on macrophage polarization, THP-1 cells were treated with saponins at 3 µg/mL and then incubated for 24 h with or without 4 µL of inactivated IBV D274 antigens (final titer of 1 HA). […] Based on the results of our previous research, the saponin concentration was selected as a non-cytotoxic concentration. At the end of the incubation period, the cells were collected by trypsinization and washed three times with PBS. Following, 1 µL of PE anti-human CD80 (Biolegend, CA), FITC anti-human CD163 (Biolegend, CA), and FITC anti-human CD11b (Biolegend, CA) antibodies were added into the cells pellet and incubated for 45 min at room temperature in the dark. The cells pellets underwent two PBS washes following incubation. Finally, the cells were subsequently analyzed by flow cytometry (BD Accuri, C5). 1 × 10^4 cells were counted for each sample group using flow cytometry. All data are the results of at least three independent experiments carried out in triplicate. Data are presented as mean ± standard error of the mean (SEM) of samples. The untreated stained macrophage cells with anti-human CD80, FITC anti-human CD163, and FITC anti-human CD11b were compared with the results of treated cells to obtain from M0 polarization to M1 and M2 or both.
Figure 2 (a) Saponins without antigen treatment, (b) Saponins treated with antigen. THP-1 cells were treated with 15 ng/ml PMA and 3 µg/ml saponins and 1 HA titer of IBV D274 induced in the saponins with antigen group for 24 h incubation. The macrophage polarization was determined with flow cytometry. Each value represents the mean ± standard deviation of three independents measurements. (P < 0.05*, P < 0.01**, P < 0.001***).

[6] = test system: THP-1 originated-macrophage; assay: MTT cytotoxicity on THP-1 originated macrophages; format: cell-based, human; conditions: mean ± standard deviation, n = 3, – = Not detected; for IC50: Homo sapiens, THP-1, 48 h
[7] = test system: CCD-34Lu normal human lung fibroblast cells; assay: MTT cytotoxicity on CCD-34Lu healthy cells; format: cell-based; conditions: Homo sapiens, Fibroblast, 48 h, mean ± standard deviation, n = 3, – = Not detected
Description: as §1, §2

[8] = test system: HeLa human cervical gland carcinoma cells; assay: MTT cytotoxicity on HeLa; format: cell-based; conditions: Homo sapiens, HeLa, 48 h, mean ± standard deviation, n = 3, – = Not detected
Description: as §1, §2

[9] = test system: MDA-MB-231 human breast cancer cells; assay: MTT cytotoxicity on MDA-MB-231; format: cell-based; conditions: Homo sapiens, MDA-MB-231, 48 h, mean ± standard deviation, n = 3, – = Not detected
Description: as §1, §2

[10] = with inactivated IBV D274 antigen (1 HA)

Row | Compound | IC50 [1] | IC50 [2] | IC50 [3] | IC50 [4] | MFI of CD 11b (M0 marker) [5, 10] | MFI of CD80 (M1 marker) [5, 10] | MFI of CD 11b (M0 marker) ([5]; without antigen) | MFI of CD80 (M1 marker) ([5]; without antigen) | MFI of CD163 (M2 marker) ([5]; without antigen) | IC50 [6] | IC50 [7] | IC50 [8] | IC50 [9] | MFI of CD163 (M2 marker) [5, 10] | IC50, THP-1 originated-macrophage ([6]; 48 h)
1 | C[C@@H]1O[C@@H](O[C@H]2[C@H](O[C@H]3CC[C@@]4(C)C(CC[C@]5(C)C4CC=C4C6CC(C)(C)CC[C@]6(C(=O)O)CC[C@]45C)[C@]3(C)CO)O[C@H](CO)[C@H](O)[C@@H]2O)[C@H](O)[C@H](O)[C@H]1O (stereo partly drawn) [Compound 1, 3-O-α-L-rhamopyranosyl-(1 → 2)-β-D-galactopyranosyl-hederagenin] | > 64 µM | > 64 µM | > 64 µM | 8.59 ± 0.19 µM | 31,644.21 ± 849.30 | 4062.43 ± 906.36 | 28,644.50 ± 849.33 | 4,536.00 ± 239.19 | 6,400.83 ± 196.02* | 27.6 ± 0.52 µM | > 64 µM | 48.1 ± 4.56 µM | 15.1 ± 1.02 µM |  | 
2 | C[C@@H]1O[C@@H](O[C@H]2[C@H](O[C@H]3CC[C@@]4(C)C(CC[C@]5(C)C4CC=C4C6CC(C)(C)CC[C@]6(C(=O)O[C@@H]6O[C@H](CO[C@@H]7O[C@H](CO)[C@@H](O)[C@H](O)[C@H]7O)[C@@H](O)[C@H](O)[C@H]6O)CC[C@]45C)C3(C)C)O[C@H](CO)[C@H](O)[C@@H]2O)[C@H](O)[C@H](O)[C@H]1O (stereo partly drawn) [Compound 2, 3-O-α-L-rhamnopyranosyl-(1 → 2)-β-D-galactopyranosyl-oleanoic acid-28-O-β-D-glucopyranosyl-(1 → 6)-β-D-glucopyranosyl ester] | > 45.9 µM | > 45.9 µM | > 45.9 µM | > 45.9 µM | 33,053.20 ± 951.60 | 4516.00 ± 223.23 | 29,875.39 ± 3311.75 | 3,629.71 ± 142.80 | 6,206.45 ± 185.19 | > 45.9 µM | > 45.9 µM | > 45.9 µM | > 45.9 µM | 7441.00 ± 423.23 | 
3 | C[C@@H]1O[C@@H](O[C@H]2[C@H](O[C@H]3CC[C@@]4(C)C(CC[C@]5(C)C4CC=C4C6CC(C)(C)CC[C@]6(C(=O)O)CC[C@]45C)C3(C)C)O[C@H](CO)[C@H](O)[C@@H]2O)[C@H](O)[C@H](O)[C@H]1O (stereo partly drawn) [Compound 2a, 3-O-α-L-rhamopyranosyl-(1 → 2)-β-D-galactopyranosyl oleanoic acid] | > 65.4 µM | > 65.4 µM | > 65.4 µM | 20.8 ± 0.46 µM | 28,297.32 ± 808.92 | 4727.00 ± 221.96 | 26,304.81 ± 2370.42 | 3,962.53 ± 246.09 |  | 37.3 ± 8.17 µM | > 65.4 µM | > 65.4 µM | 24.3 ± 2.65 µM | 7408.64 ± 224.16 | 
4 | C[C@@H]1O[C@@H](O[C@H]2[C@H](O[C@H]3CC[C@@]4(C)C(CC[C@]5(C)C4CC=C4C6CC(C)(C)CC[C@]6(C(=O)O[C@@H]6O[C@H](CO[C@@H]7O[C@H](CO)[C@@H](O)[C@H](O)[C@H]7O)[C@@H](O)[C@H](O)[C@H]6O)CC[C@]45C)[C@]3(C)CO)OC[C@@H](O)[C@@H]2O)[C@H](O)[C@H](O)[C@H]1O (stereo partly drawn) [Compound 3, 3-O-α-L-rhamnopyranosyl-(1 → 2)-β-D-xylopyranosyl-hederagenin-28-O-β-D-glucopyranosyl-(1 → 6)-β-D-glucopyranosyl ester] | > 46.5 µM | > 46.5 µM | > 46.5 µM | > 46.5 µM | 29,545.10 ± 906.36 | 4564.51 ± 138.81 | 28,092.69 ± 1435.47 | 4,549.73 ± 913.74 | 6,655.82 ± 206.67* | > 46.5 µM | > 46.5 µM | > 46.5 µM | > 46.5 µM | 8303.34 ± 245.1** | 
5 | C[C@@H]1O[C@@H](O[C@H]2[C@H](O[C@H]3CC[C@@]4(C)C(CC[C@]5(C)C4CC=C4C6CC(C)(C)CC[C@]6(C(=O)O)CC[C@]45C)[C@]3(C)CO)OC[C@@H](O)[C@@H]2O)[C@H](O)[C@H](O)[C@H]1O (stereo partly drawn) [Compound 3a, 3-O-α-L-rhamopyranosyl-(1 → 2)-β-D-xylopyranosyl hederagenin] | > 66.6 µM | > 66.6 µM | > 66.6 µM | > 66.6 µM | 29,092.45 ± 852.78 | 4911.00 ± 224.16 | 29,092.75 ± 2580.19 | 4,248.00 ± 137.13 | 6,408.00 ± 195.24* | > 66.6 µM | > 66.6 µM | > 66.6 µM | > 66.6 µM |  | did not have a cytotoxic effect
6 | COc1cccc2c1C(=O)c1c(O)c3c(c(O)c1C2=O)C[C@@](O)(C(=O)CO)C[C@@H]3O[C@H]1C[C@H](N)[C@H](O)[C@H](C)O1 [Doxorubicin, doxorubicin, reference compound] | 4.23 ± 0.02 µM | 36.85 ± 0.02 µM | 11.09 ± 0.02 µM | 40.01 ± 0.02 µM |  |  |  |  |  | 6.84 ± 0.18 µM | 33.98 ± 0.02 µM | 23.95 ± 0.02 µM | 70 ± 0.02 µM |  | 
